Results reported in patent publication US20090286884A1, “Hops Beta-Acid Anti-Diabetic Composition” (priority 2004, published 2009).

System: normal human muscle myoblasts (HSMM)
Assay: 3H-deoxyglucose uptake into skeletal muscle cells
Type: cell-based
Conditions: after 24 hrs incubation in the presence of various hops extracts
Procedure: All skeletal muscle cell strains used are skeletal muscle myoblast cells (purchased from Clonetics) with negative for HIV-I, hepatitis-B & C, mycoplasma, bacteria, yeast and fungi. This Skeletal Muscle Myoblast Cell System contains normal human muscle myoblasts (HSMM). The cell and media System can quickly generate HSMM cultures for the study of cellular development and differentiation, insulin uptake or resistance, or tissue repair. The Skeletal muscle cells were cultured on Cytostar 96-well cultured plate. Cells were labeled with 3H-deoxyglucose (50 μCi/ml, 4 μM) in the presence of 8 mM glucose. Radioactivity was counted on a Microbeta scintillation counter. In beta-acid treated cells (mixture of 65:25:10 of co-Lupulone: lupulone: ad-lupulone, Beta Tec, Washington, D.C.), kinetics of labeled deoxyglucose uptake was directly measured without washing. In order to avoid color quenching of quercetin treated cells, cells were washed with Hanks buffer and then the radioactivity was measured at end-point (18 hr). Error bars show SD (n=3).

Compound: COc1cc(O)c(CC=C(C)C)c(O)c1C(=O)/C=C/c1ccc(O)cc1 [xanthohumol]
- glucose uptake into muscle skeletal cells, enhancing effect: no enhancing effect
